According to patent US9765039B2, “Biaryl derivatives as bromodomain inhibitors” (Zenith Epigenetics Ltd., priority 2012, dated 2017):

Tests used:
hIL-6 mRNA = assay: Inhibition of hIL-6 mRNA transcription in LPS-stimulated U937 macrophages; format: cell-based, human; set-up: key: Active: Compounds with an IC50 value less than 30 μM are deemed to be active; conditions: U937 differentiated into macrophages, 1 h pretreatment, lipopolysaccharide 3 h
Outline: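 U937 cells differentiated 3 days with 60 ng/mL PMA, pretreated 1 h with compound, then stimulated with […] E. coli LPS for 3 h at 37° C. hIL-6 mRNA quantified by one-step real-time RT-PCR, Ct normalised to internal control and expressed as fold induction relative to control.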

hApoA-1 mRNA = assay: Up-regulation of hApoA-1 mRNA transcription in Huh7 cells; format: cell-based, human; set-up: key: Active: Compounds with an EC170 value less than 30 μM are deemed to be active.; Not Active: Compounds with an EC170 value less than 30 μM are deemed to be active; conditions: 48 hrs treatment, ApoA-I mRNA
Outline: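 Huh7 cells plated 24 h before compound, then treated 48 h; mRNA isolated from lysates and ApoA-I quantified by one-step real-time PCR. Fold induction derived from Ct values relative to the matching DMSO control; EC170 reported as activity measure.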

c-myc = assay: Inhibition of c-myc expression in cancer cell lines (mRNA, real-time PCR); format: cell-based; set-up: key: Active: Compounds with an IC50 value less than 30 μM were deemed to be active; conditions: Human AML MV4-11 cells, 3 hours
Outline: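 MV4-11 cells (2.5×10^4) exposed to compound or 0.1% DMSO for 3 h at 37° C, then lysed for mRNA isolation. c-myc and cyclophilin cDNAs co-amplified by duplex RT real-time PCR. IC50 from dose-response curve.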

Brd4 bromodomain 1 = biological target: T1, Brd4 bromodomain 1 (Homo sapiens, UniProt O60885); assay: Inhibition of tetra-acetylated histone H4 binding to BET bromodomains (TR-FRET); set-up: key: Active: Compounds with an IC50 value less than 30 μM were deemed to be active.; Not Active: Compounds with an IC50 value less than 30 μM were deemed to be active; conditions: first bromodomain of Brd4, tetra-acetylated histone H4 peptide
T1 construct: made in house; host or cells: E. coli BL21(DE3)
Outline: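 TR-FRET with N-terminally His-tagged bromodomains (200 nM, E. coli-expressed, Ni affinity and SEC-purified) and biotinylated tetra-acetylated histone H4 peptide (25–50 nM), detected with Eu-cryptate streptavidin and XL665 anti-His antibody. Buffer 30 mM HEPES pH 7.4, 320 mM KF, 0.08% BSA, 0.2% DMSO; 2 h RT. IC50 from decrease in 665/620 nm ratio.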

- IL-6 activity (IC50 < 30 μM) (hIL-6 mRNA): Active
- c-myc activity (IC50 < 30 μM) (c-myc): Active
- FRET activity (IC50 < 30 μM) (Brd4 bromodomain 1): Active
SMILES: COc1cc(OC)c2c(=O)[nH]c(-c3ccc(OCCNC(C)C)c(-c4ccc([S+](C)[O-])cc4)n3)nc2c1 (stereo not shown) [Example 41, 2-(5-(2-(Isopropylamino)ethoxy)-6-(4-(methylsulfinyl)phenyl)pyridin-2-yl)-5,7-dimethoxyquinazolin-4(3H)-one]
- ApoA-1 Activity (EC170 < 30 μM) (hApoA-1 mRNA): Active
